Values of other authors in publication PMC5745029 (Bioconjugate chemistry, 2010).

Target: T1, human apical sodium dependent bile acid transporter (ASBT) (Homo sapiens, UniProt Q12908)
T1 sequence (Q12908 1-348): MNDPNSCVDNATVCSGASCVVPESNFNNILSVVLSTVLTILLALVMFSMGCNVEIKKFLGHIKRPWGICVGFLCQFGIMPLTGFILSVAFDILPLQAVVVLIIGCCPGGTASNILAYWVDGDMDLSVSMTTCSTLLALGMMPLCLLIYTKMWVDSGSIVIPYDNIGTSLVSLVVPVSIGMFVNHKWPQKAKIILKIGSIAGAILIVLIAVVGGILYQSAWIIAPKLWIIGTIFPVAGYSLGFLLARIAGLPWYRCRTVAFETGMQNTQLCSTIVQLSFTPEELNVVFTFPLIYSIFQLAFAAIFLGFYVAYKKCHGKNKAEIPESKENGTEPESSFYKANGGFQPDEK
Details: ASBT-MDCK monolayer

## C[C@H](CCC(=O)O)[C@H]1CC[C@H]2[C@@H]3[C@H](O)C[C@@H]4C[C@H](O)CC[C@]4(C)[C@H]3CC[C@]12C [CDCA, chenodeoxycholate]
  ASBT inhibition among native bile acids: most potent inhibitor among native bile acids
